The target of the assay is Tyrosine-protein kinase SYK (Homo sapiens, UniProt P43405).

One may read the IC50 as the concentration at which inhibition is half-maximal. A high value points to weaker potency in that assay.

In turn, `COc1cc(-c2cc3ncccc3c(O[C@H](C)[C@H]3CNC(=O)C3)n2)ccc1OC(F)(F)F` gave an IC50 of 1.9 nM.

(Values after ChEMBL document CHEMBL3639308, “Substituted naphthyridines and their use as medicaments” (2015).)
